Assay results from patent US5670501A, “N-substituted 9-alkyladenines” (Discovery Therapeutics, Inc., priority 1994, dated 1997).

Columns and labels:
adenosine A1 receptor [1] = molecular target: T1, adenosine A1 receptor (Cavia porcellus, UniProt P47745); assay: Receptor affinity (radioligand binding), A1, [3H]CHA, guinea pig tissue; settings: room temperature, 2 hours, value obtained using guinea pig tissue
T1 construct: from tissue; host or cells: isolated guinea pig left atria
T1 sequence (P47745 1-326): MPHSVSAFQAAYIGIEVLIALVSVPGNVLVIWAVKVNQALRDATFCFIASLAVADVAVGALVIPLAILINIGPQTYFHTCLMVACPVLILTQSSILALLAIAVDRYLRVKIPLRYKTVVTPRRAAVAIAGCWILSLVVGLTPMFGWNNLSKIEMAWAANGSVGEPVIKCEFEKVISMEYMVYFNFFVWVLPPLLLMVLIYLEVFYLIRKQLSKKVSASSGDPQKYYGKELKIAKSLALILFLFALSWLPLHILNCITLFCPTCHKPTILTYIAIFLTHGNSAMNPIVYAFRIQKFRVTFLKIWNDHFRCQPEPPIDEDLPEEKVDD
Protocol: (§1) 1. Receptor Affinity Experiments (Radioligand Binding)
(§2) Tissues (bovine caudate, guinea pig cortex, guinea pig striatum) were homogenized with a Brinkman polytron and the membranes were collected by centrifugation at 40,000×g at 4° C. for 10 min. The membranes were washed by resuspension and centrifugation, resuspended, and incubated in the presence of 1 U/ml adenosine deaminase for 15-30 min. at 37° C. The membranes were diluted, centrifuged once, and resuspended to a final concentration of 0.5-2 mg protein/ml. Adenosine deaminase (0.1 U/ml) was included in the final resuspension. Assays were initiated by addition of membranes. The compounds of the present invention were subjected to the following experimental conditions: A1 determinations/incubated with [^3 H]CHA at room temperature for 2 hours, A2 determinations/incubated with [^3 H]NECA at room temperature for 1 hour. Assays were terminated by filtration, and the filters were counted in scintillation counters.
*This value was obtained using guinea pig tissue.

adenosine A1 receptor [2] = molecular target: T1, adenosine A1 receptor; assay: A1 in vitro functional test: negative inotropic response, left atria, antagonism of NECA; format: cell-based, guinea pig; settings: for Selectivity Ratio (A2 KB /A1 KB): functional; for Kb: guinea pig left atria, electrically evoked twitch, NECA agonist, 31° C, Schild plot, read-out: A1 KB (antagonist dissociation constant)
Protocol: 2. Adenosine--A1 /A2 In Vitro Functional Tests
(A1 Assay: Negative inotropic response)-Guinea pig left atria were placed in organ baths filled with Krebs Henseleit solution gassed with 95% O2 and 5% CO2 and maintained at a temperature of 31° C. An initial resting tension of 1 gm. was placed on each tissue, which was allowed to equilibrate. Atria were stimulated electrically to produce twitch responses. A dose-response curve for the inhibition of the electrically-evoked twitch response was obtained by cumulative addition of the adenosine agonist […]. After the washout of the tissue, a fixed concentration of test compound was added and the tissue allowed to equilibrate for 1 hr. before cumulative additions of the adenosine agonist 5'-N-ethylcarboxamidoadenosine (NECA) to generate a new dose response curve. This procedure was repeated with different fixed concentrations of test compounds to generate a family of dose response curves. Schild plots were constructed from the resultant concentration-effect curves, and KB (antagonist dissociation constant) values were obtained. The results (see Table VII) are expressed as KB values (concentration of test compound such that one-half of the tissue adenosine receptor population is occupied by the test compound).

adenosine A1 receptor [3] = molecular target: T2, adenosine A1 receptor (Bos taurus, UniProt P28190); assay: Receptor affinity (radioligand binding), A1, [3H]CHA; parameters: species or system bovine; settings: for Selectivity Ratio (A2 Ki /A1 Ki): radioligand binding; for Ki: [3H]CHA, room temperature, 2 hours, tissues listed: bovine caudate, guinea pig cortex, guinea pig striatum (only Example 13 marked guinea pig)
T2 construct: were homogenized with a Brinkman polytron and the membranes were collected by centrifugation; from tissue; host or cells: bovine caudate membranes
T2 sequence (P28190 1-326): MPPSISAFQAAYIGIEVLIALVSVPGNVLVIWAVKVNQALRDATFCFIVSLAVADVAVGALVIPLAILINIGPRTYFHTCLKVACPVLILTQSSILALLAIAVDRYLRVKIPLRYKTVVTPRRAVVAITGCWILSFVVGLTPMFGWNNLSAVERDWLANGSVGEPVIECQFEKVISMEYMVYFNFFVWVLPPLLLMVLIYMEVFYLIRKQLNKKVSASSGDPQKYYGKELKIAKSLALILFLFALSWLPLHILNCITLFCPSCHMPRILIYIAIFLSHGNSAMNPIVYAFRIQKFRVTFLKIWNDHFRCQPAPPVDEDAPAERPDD
Protocol: as §1, §2

adenosine A2 receptor = assay: Receptor affinity (radioligand binding), A2, [3H]NECA; parameters: species or system bovine / guinea pig; settings: room temperature, 1 hour
Protocol: as §1, §2

Ki (adenosine A1 receptor [1]) [nM] | Selectivity Ratio (A2 KB /A1 KB) (adenosine A1 receptor [2]) | Kb (adenosine A1 receptor [2]) [nM] | Selectivity Ratio (A2 Ki /A1 Ki) (adenosine A1 receptor [3]) | Ki (adenosine A2 receptor) [nM] | Ki (adenosine A1 receptor [3]) [nM] | SMILES
6.31 | > 20000 | 5 | 166 | 1050 | – | CC(C)N(C)c1nc2c(N[C@H]3C[C@H]4CC[C@@H]3C4)ncnc2n1C (relative stereo) [Example 13, (±)-N^6-(endo-2'-norbornyl)-8-isopropylmethylamino-9-methyladenine]
– | – | 240 | > 52 | > 10000 | 191 | Cn1c(N2CCCCC2)nc2c(N[C@H]3C[C@H]4CC[C@@H]3C4)ncnc21 (relative stereo) [Example 20, (±)-N^6-(endo-2'-norbornyl)-8-piperidinyl-9-methyladenine]
– | 362 | 110 | 166 | 617 | 3.71 | CN(C)c1nc2c(N[C@H]3C[C@H]4CC[C@@H]3C4)ncnc2n1C (relative stereo) [Example 5, (+)-N^6-(endo-2'-norbornyl)-8-dimethylamino-9-methyladenine]
– | 250 | 105 | 43 | 513 | 12 | COc1nc2c(N[C@H]3C[C@H]4CC[C@@H]3C4)ncnc2n1C (relative stereo) [Example 4, (±)-N^6-(endo-2'-norbornyl)-8-methoxy-9-methyladenine]
– | – | 72 | 100 | 275 | 2.75 | CN(C)c1nc2c(N[C@H]3C[C@@H]4C[C@H]3C[C@@H]4O)ncnc2n1C (relative stereo) [Example 18, (±)-N^6-[endo-2'-(endo-5'-hydroxy)norbornyl]-8-dimethylamino-9-methyladenine]
– | 65 | 30 | 59 | 69.2 | 1.17 | Cn1c(Br)nc2c(N[C@H]3C[C@@H]4C[C@H]3C[C@@H]4O)ncnc21 (relative stereo) [Example 17, (±)-N^6-[endo-2'-(endo-5'-hydroxy)norbornyl]-8-bromo-9-methyladenine]
– | 4450 | 4 | 2,626 | 234 | 0.0891 | CC(C)N(C)c1nc2c(N[C@H]3C[C@@H]4C[C@H]3C[C@@H]4O)ncnc2n1C (relative stereo) [Example 16, (±)-N^6-[endo-2'-(endo-5'-hydroxy)norbornyl]-8-isopropylmethylamino-9-methyladenine]
– | 36 | 550 | 617 | 6170 | 10 | Cn1cnc2c(N[C@@H]3C[C@@H]4CC[C@H]3C4)ncnc21 (relative stereo) [Example 49, N^6-(endo-2-norbornyl)-9-methyladenine, reference compound]

The remaining lines, values behind:

SMILES | Ki (adenosine A1 receptor [1]) [nM] | Selectivity Ratio (A2 KB /A1 KB) (adenosine A1 receptor [2]) | Kb (adenosine A1 receptor [2]) [nM] | Selectivity Ratio (A2 Ki /A1 Ki) (adenosine A1 receptor [3]) | Ki (adenosine A2 receptor) [nM] | Ki (adenosine A1 receptor [3]) [nM]
Cn1c(Br)nc2c(N[C@H]3C[C@H]4CC(=O)[C@@H]3C4)ncnc21 (relative stereo) [Example 19] | – | – | 115 | 100 | 347 | 3.47
Cn1cnc2c(NC3CCCC3)ncnc21 [Example 48, N^6-cyclopentyl-9-methyladenine, reference compound] | – | > 395 | 759 | 501 | 5010 | 10
Cn1cnc2c(N[C@H]3C[C@@H]4C[C@H]3[C@@H](O)C4)ncnc21 (relative stereo) [Example 23] | – | – | 3800 | 371 | 31600 | 85.1
CSc1nc2c(NC3CCCC3)ncnc2n1C [Example 12, N^6-cyclopentyl-8-methylthio-9-methyladenine] | – | – | 71 | 145 | 363 | 2.5
Cn1cnc2c(N[C@@H]3C[C@H]4C[C@@H]3c3ccc(O)cc34)ncnc21 (relative stereo) [Example 36, (±)-N^6-[endo-2'-(5',6'-(6"-hydroxy)benzo)norbornyl]-9-methyladenine] | – | – | 275 | 316 | 631 | 2
Cn1cnc2c(N[C@H]3C[C@H]4C[C@@H]3[C@@H](O)C4)ncnc21 (relative stereo) [Example 32] | – | – | 6030 | > 195 | > 10000 | 51.3
Cn1cnc2c(N[C@H]3C[C@@H]4C[C@H]3[C@H](O)C4)ncnc21 (relative stereo) [Example 24] | – | – | 4680 | 152 | 21400 | 141
COc1ccc2c(c1)[C@@H]1C[C@H]2[C@H](Nc2ncnc3c2ncn3C)C1 (relative stereo) [Example 41] | – | – | 64600 | > 48 | > 10000 | 209
